Assay results published in publication PMC6395926, “Mass Balance and Drug Interaction Potential of Intravenous Eravacycline Administered to Healthy Subjects” (Antimicrobial Agents and Chemotherapy, 2019).
Like-named read-outs stand apart in the source and are kept apart here.

What was measured:
[1] = Drug interaction study with rifampin (CYP3A4 inducer): plasma PK of i.v. eravacycline and metabolites; type: in vivo, human; conditions: for AUC0–24 / AUC(0-inf) / clearance / half-life / Vd / Cmax: n = 12; for Vd: read-out: Vss; for Cmax: iv
Experimental: Two single-center, open-label studies were conducted to evaluate the effects of itraconazole (CYP3A4 inhibitor) and rifampin (CYP3A4 inducer) on the pharmacokinetics of i.v. eravacycline in healthy subjects.
(ii) Study design. Each study included a 28-day screening period, a 13-day treatment period (19 days for rifampin), and an end-of-study visit 2 weeks after the last dose of study drug. […] For the itraconazole study, 200 mg oral itraconazole was administered q12h on day 8 and q24h on days 9 and 10. For the rifampin study, 600 mg oral rifampin was administered q24h from day 8 to day 17. All study treatments were administered in the fasting state.
(§1) (iii) Study assessments. Blood samples for PK analysis of eravacycline and its metabolites, TP-498, TP-6208, and TP-034, were collected predose and 1, 2, 4, 6, 8, 12, 24, 36, and 48 h after the start of the i.v. infusion on day 1 and day 10 (itraconazole) or day 1 and day 17 (rifampin). Safety assessments included AEs, clinical laboratory safety tests (hematology, serum chemistry, electrolytes, coagulation, urinalysis, and lipid profile), vital signs, physical examinations, and 12-lead ECG.
Concentrations of eravacycline, TP-498, and TP-6208 in human plasma samples were measured by LC-tandem MS after solid-phase extraction over a calibration range of 5.00 to 500 ng/ml. The LLOQ for eravacycline, TP-498, TP-6208, and TP-034 in human plasma was 5.00 ng/ml. Samples with eravacycline initial concentrations above the upper limit of quantification (500 ng/ml) were diluted appropriately with control blank human plasma and reanalyzed. There was no interference seen when human plasma was fortified with eravacycline, TP-498, TP-6208, and either itraconazole or rifampin.
(iv) Pharmacokinetic analysis. PK assessments included Cmax, Tmax, AUC0–24, AUC0–t, t1/2, CL, and Vss. Actual sampling time was used for PK calculations. PK parameters were derived by noncompartmental analysis. Descriptive statistics were calculated for analyte concentrations at each evaluation time point and for all quantitative PK parameters of eravacycline, TP-498, TP-6208, and TP-034 for day 1 and day 10 (day 17 for rifampin). The effect of itraconazole or rifampin on the PK profile of i.v. eravacycline was evaluated by comparing log-transformed PK parameters (Cmax and AUC0–t) associated with the administration of study drug on day 1 and day 10 (itraconazole) or day 1 and day 17 (rifampin) using paired t tests. The ratio and 90% confidence interval (CI) were presented after back transformation to the original scale. Pharmacokinetic variables were calculated using WinNonlin Professional.

[2] = parameters: method as in PMID 30150464; conditions: healthy volunteers, i.v. 1 mg/kg q12h for 10 days; cited from earlier work
[3] = parameters: species or system human; conditions: in vivo
Experimental: as §1

[4] = Drug interaction study with rifampin (CYP3A4 inducer): plasma PK of i.v. eravacycline and metabolites; type: in vivo; conditions: human, intravenous, day 17, eravacycline plus rifampin, read-out: AUC0–t (distribution, as worded in the text)
[5] = Itraconazole drug interaction study: safety/tolerability; type: in vivo, human
Experimental: as §1

[6] = Mass balance study: safety/tolerability; type: in vivo, human
Experimental: Safety was assessed from adverse events (AEs), physical examinations, laboratory safety tests (hematology, coagulation, clinical chemistry, and urinalysis), vital signs, ECGs, and body weight.

[7] = Mass balance study: excretion of radioactivity in urine and feces after i.v. [14C]eravacycline; type: in vivo, human; conditions: 60 mg [14C]eravacycline i.v.
From the text: (ii) Study design. This was a single-center, open-label study of a single i.v. dose of [^14C]eravacycline to assess the mass balance recovery and PK of eravacycline. The primary objectives were to determine mass balance recovery, determine routes and rates of excretion, provide metabolite profiling and structural identification, and assess the PK of radioactivity in plasma and whole blood. Subjects were screened for inclusion in the study, including a detailed medical history, physical examination, and laboratory evaluations, in the 28 days before dosing. […] After an overnight fast, each subject received 60 mg [^14C]eravacycline containing not more than 3.8 MBq (105 μCi) ^14C as a single i.v. infusion over 60 min.
(v) Excretion of radioactivity. Mass balance was determined from the incremental amount and cumulative amount excreted in urine, feces, and urine and feces combined. Amount excreted and amount excreted expressed as a percentage of administered dose were determined for urine, feces, and total samples.

[8] = eravacycline plus rifampin (day 17) vs eravacycline alone (day 1), 1 mg/kg i.v.
[9] = human, plasma, intravenous, 1 mg/kg, day 1, eravacycline alone, mean ± SD
[10] = human, plasma, intravenous, day 17, with rifampin, mean ± SD

AUC0–24 ([1]; day 1, eravacycline alone, mean ± SD): 4,100 ± 589 h·ng/ml
AUC0–24 ([1]; day 17, with rifampin, mean ± SD): 3,090 ± 568 h·ng/ml
decrease of AUC0–24 with coadministration of rifampin ([1]; day 17 vs day 1): approximately 25%
decrease of AUC0–∞ with coadministration of rifampin ([1]; day 17 vs day 1): ~35%
increase of CL with coadministration of rifampin ([1]; day 17 vs day 1): approximately 50%
Ratio of geometric mean AUC0–t, day 17/day 1 [1, 8]: 67.9%
Ratio of geometric mean Cmax, day 17/day 1 [1, 8]: 106.5%
AUC(0-inf) [1, 9]: 5380 ng·h/mL
clearance [1, 9]: 3.2 ± 0.6 mL/min/kg
half-life [1, 9]: 15 ± 2 h
Vd [1, 9]: 2.85 ± 0.29 L/kg
AUC(0-t) ([1]; human, plasma, intravenous, 1 mg/kg, day 1, eravacycline alone, read-out: AUC0–t (distribution, as worded in the text)): 4100 ng·h/mL
AUC(0-inf) [1, 10]: 3520 ng·h/mL
clearance [1, 10]: 4.94 ± 1.08 mL/min/kg
half-life [1, 10]: 11 ± 2.3 h
Vd [1, 10]: 2.49 ± 0.51 L/kg
Cmax ([1]; human, plasma, day 1, eravacycline 1 mg/kg i.v. alone, mean ± SD): 1170 ng/mL
Cmax ([1]; human, plasma, day 17, eravacycline 1 mg/kg i.v. with rifampin 600 mg daily day 8 to 17, mean ± SD): 1260 ng/mL
AUC(0-t) [4]: 3090 ng·h/mL
Renal excretion, share of the dose [7]: approximately 34%
total radioactivity recovered in the feces [7]: 47.8%
total radioactive dose recovered in the urine and feces ([7]; 288-h collection period): 82.8%
share of the dose recovered within the first 72 h ([7]; urine and feces): Approximately half
SMILES: CN(C)[C@@H]1C(O)=C(C(N)=O)C(=O)[C@@]2(O)C(O)=C3C(=O)c4c(O)c(NC(=O)CN5CCCC5)cc(F)c4C[C@H]3C[C@@H]12 [eravacycline]
AUC0–12 [2]: 6,309 ng·h/ml
clearance (CL) [2]: 2.67 mL/min/kg
mean peak plasma concentration (Cmax) [2]: 1,825 ng/ml
volume of distribution at steady state (Vss) [2]: 4.0 L/kg
subjects who experienced an AE ([3]; human, iv): 25.0%
serious AEs or discontinuations for AEs related to study drug [3]: No serious AEs
subjects who experienced an AE ([5]; eravacycline i.v. plus itraconazole treatment period, 1 of 10 subjects): 10.0%
subjects who experienced an AE ([5]; eravacycline i.v. treatment period, 1 of 12 subjects): 8.3%
serious AEs or discontinuations for AEs related to study drug ([5]; itraconazole study): No serious AEs
serious or severe AEs [6]: No serious or severe AEs
number of subjects who experienced drug-related AEs ([6]; 5 male subjects): 3
subjects who experienced at least 1 adverse effect (AE) ([6]; 5 male subjects, single i.v. dose): 80%
